# Experimental data as given in US20220339143A1, “TAK-925 FOR USE IN TREATING NARCOLEPSY” (Takeda Pharmaceutical Company Limited, priority 2019, published 2022).
# “And” between values parts separate entries of the source, which are not always exact repeats. Identical values can stand only once.
# Tests used:
# Format in all cases: in vivo, human
# patients with NT1 = assay: Sleep latency in MWT, multiple dose (Cohorts B1, B2)
# Protocol: The purpose of the study was to evaluate the safety, tolerability, pharmacokinetics and pharmacodynamics of Compound A after multiple IV administration in patients with NT1. NT1 patients were evaluated in Cohort B1 and B2 (Table 19). Compound A or placebo were administered via IV infusion over 9 hours once daily for 7 days. A total of 13 patients with NT1 were treated with Compound A or placebo (4, 4, and 5 subjects in the placebo, Compound A 11 mg, and Compound A 44 mg groups, respectively). In this part, potential efficacy of Compound A was evaluated with MWT, ESS, KSS, night-time PSG (NPSG), cataplexy frequency assessment, and PGI-C as an exploratory PD assessment.
# An overview of study schedule and PD testing in NT1 Patients is illustrated in FIG. 11. After screening, patients eligible for these parts had to discontinue any medication for narcolepsy including medications used for EDS or cataplexy. The medications had to be stopped for a minimum of 7 days or at least 5 half-lives of each medication, whichever was longer, before the first day of dosing (Day 1). As for a subject having possibility of getting injured due to severe cataplexy, the subject might have been confined to the site before Day −2 at a discretion of the investigator. In all cohorts of these parts, subjects underwent NPSG on Day −2 and baseline MWT sessions 4 times on Day −1 (at around 10:00, 12:00, 14:00, and 16:00). Study drug dosing via IV infusion was started at around 08:00. MWT was conducted on Day 1 at around 10:00, 12:00, 14:00, and 16:00. Subjects were allowed to take a nap on the days with no MWT assessment. At night of Day 6, the subjects underwent NPSG once again to evaluate the effect of multiple daytime dosing on night-time sleep structure. On Day 7, the subjects underwent MWT at the same hours as on Day −1. Cataplexy was to be evaluated by using the self-recorded sleep diary. The subjects were discharged from the study site on Day 8.
# The MWT is a validated objective measure that evaluates a person's ability to remain awake under soporific conditions for a defined period of time. As there is no biological measure of wakefulness, this was measured indirectly by the inability or delayed tendency to fall asleep. This tendency to fall asleep was measured via EEG-derived sleep latency in MWT.
# On Day −1, Day 1 and Day 7, 40-minute session (1 session) of MWTs was performed 4 times (approximately at 10:00, 12:00, 14:00, and 16:00) per day. Sleep latency of each session was recorded. Subjects were required to stay awake during an interval between sessions.
# [1] = system: patients with narcolepsy type 1 (NT1); assay: Sleep latency in Maintenance of Wakefulness Test (MWT), single dose (Cohorts 5, 6, 7); conditions: for average sleep latency in MWT, mean (SD): NT1 (placebo 2.88); for Average Sleep Latency in MWT: Cohort 5, 6, 7
# Protocol: In Part 2, NT1 patients received a single dose of Compound A or placebo administered as a continuous IV infusion over a 9-hour period during the day. A 40-minute Maintenance of Wakefulness Test (MWT) was conducted 4 times during the continuous IV infusion to assess effects on wakefulness in soporific conditions at 2, 4, 6 and 8 hours from start of infusion. Three cohorts of patients were enrolled (n=14 total).
# The average sleep latency in the Maintenance Wakefulness Test (MWT)
# Sleep related parameters in the MWT (sleep latency (SL) in each session).
# The pharmacodynamics (PD) for sleepiness is shown in FIG. 8, which depicts the average post-dose MWT sleep latency for NT1 patients overall all dose time points. Due to the crossover design, some subjects in the placebo group were the same as some subjects in 5 mg-44.8 mg group.
# [2] = system: patients with narcolepsy type 1 (NT1); assay: Safety/tolerability of a single dose given as 9 hour continuous IV infusion in NT1 patients
# Protocol: This study investigates (i) the safety and tolerability of Compound A (methyl (2R,3S)-3-((methylsulfonyl)amino)-2-(((cis-4-phenylcyclohexyl)oxy)methyl)piperidine-1-carboxylate) when a single dose given as a 9 hour continuous IV infusion is administered to healthy adults, healthy elderly subjects and patients with narcolepsy type 1 (NT1); (ii) the pharmacokinetics of Compound A when a single dose given as a 9 hour continuous IV infusion is administered to healthy adults, healthy elderly subjects and patients with narcolepsy type 1; and (iii) the pharmacodynamics (PD) effects of Compound A, primarily by evaluation of the sleep latency on MWT when a single dose given as a 9 hour continuous IV infusion is administered to patients with narcolepsy type 1.
# Safety and tolerability: adverse events, vital signs, 12-lead ECG and clinical laboratory tests (hematological tests, blood biochemical tests and urinalysis)
# To investigate the safety of Compound A, the treatment-emergent adverse events (TEAEs) for healthy subjects and subjects with narcolepsy type 1 (NT1 patients) treated with Compound A were evaluated. A summary of the TEAEs for healthy subjects from cohorts 1 and 2 is shown in FIG. 3, for healthy subjects from cohorts S1, S2, 3, and 4 is shown in FIG. 4, and for NT1 patients is shown in FIG. 5.
compound,measurement,setting,value
"COC(=O)N1CCC[C@H](NS(C)(=O)=O)[C@@H]1CO[C@H]1CC[C@@H](c2ccccc2)CC1 [Compound A, methyl (2R,3S)-3-((methylsulfonyl)amino)-2-(((cis-4-phenylcyclohexyl)oxy)methyl)piperidine-1-carboxylate]",mean sleep latency in MWT,"patients with NT1; 11 mg, Day 1 (placebo 1.31)",37.16 min
same,mean change from baseline in average sleep latency in MWT,"patients with NT1; 11 mg, Day 1 (placebo −0.66)",35.13 min
same,mean sleep latency in MWT,"patients with NT1; 11 mg, Day 7 (placebo 1.59)",23.03 min
same,mean change from baseline in average sleep latency in MWT,"patients with NT1; 11 mg, Day 7 (placebo −0.38)",21.00 min
same,maximum sleep latency achieved in MWT,"patients with NT1; 11 mg, at 4 hours on Day 1",40 min
same,mean sleep latency in MWT,"patients with NT1; 44 mg, Day 1 (placebo 1.31)",40.00 min
same,mean change from baseline in average sleep latency in MWT,"patients with NT1; 44 mg, Day 1 (placebo −0.66)",34.19 min
same,mean sleep latency in MWT,"patients with NT1; 44 mg, Day 7 (placebo 1.59)",40.00 min
same,mean change from baseline in average sleep latency in MWT,"patients with NT1; 44 mg, Day 7 (placebo −0.38)",34.78 min
same,maximum sleep latency achieved in MWT,"patients with NT1; 44 mg, all time points on both Day 1 and Day 7",40 min
same,"average sleep latency in MWT, LS mean difference (95% CI) minus placebo",[1]; 5 mg,"18.792 (11.987, 25.596) min"
same,"average sleep latency in MWT, mean (SD)",[1]; 5 mg single 9 h IV infusion,22.38 (10.125) min and 22.4 min and 22.38 min
same,"Sleep latency in MWT by visit, Mean","[1]; 5 mg, 10:00 (infusion start 7:45)",25.25 min
same,"Sleep latency in MWT by visit, Mean","[1]; 5 mg, 12:00",29.75 min
same,"Sleep latency in MWT by visit, Mean","[1]; 5 mg, 14:00",8.92 min
same,"Sleep latency in MWT by visit, Mean","[1]; 5 mg, 16:00",25.58 min
same,"average sleep latency in MWT, LS mean difference (95% CI) minus placebo",[1]; 11.2 mg,"36.063 (27.729, 44.396) min"
same,subjects achieving the maximum sleep latency (40 min) in MWT,[1]; 11.2 mg,3 out of 4
same,"average sleep latency in MWT, mean (SD)",[1]; 11.2 mg single 9 h IV infusion,37.59 (4.813) min and 37.6 min and 37.59 min
same,"Sleep latency in MWT by visit, Mean","[1]; 11.2 mg, 10:00",37.38 min
same,"Sleep latency in MWT by visit, Mean","[1]; 11.2 mg, 14:00",33.00 min
same,"Sleep latency in MWT by visit, Mean","[1]; 11.2 mg, 16:00",40.00 min
same,"average sleep latency in MWT, LS mean difference (95% CI) minus placebo",[1]; 44.8 mg,"36.662 (27.344, 45.979) min"
same,"average sleep latency in MWT, mean (SD)",[1]; 44.8 mg single 9 h IV infusion,40.00 (0.000) min and 40 min
same,subjects achieving the maximum sleep latency (40 min) in MWT,"[1]; 44.8 mg, all four 40-min trials",4 out of 4
same,"Sleep latency in MWT by visit, Mean","[1]; 44.8 mg, 10:00",40.00 min
same,"Sleep latency in MWT by visit, Mean","[1]; 44.8 mg, 12:00",40.00 min
same,"Sleep latency in MWT by visit, Mean","[1]; 44.8 mg, 14:00",40.00 min
same,"Sleep latency in MWT by visit, Mean","[1]; 44.8 mg, 16:00",40.00 min
same,effect on wakefulness as measured by time to sleep onset on the MWT,"[1]; 5, 11.2, 44.8 mg, NT1 patients",clear dose dependent effect
same,Average Sleep Latency in MWT,"[1]; Cmpd A 5 mg, Mean",22.38 min
same,Average Sleep Latency in MWT,"[1]; Cmpd A 5 mg, Median",21.69 min
same,Average Sleep Latency in MWT,"[1]; Cmpd A 11.2 mg, Mean",37.59 min
same,Average Sleep Latency in MWT,"[1]; Cmpd A 11.2 mg, Median",40.00 min
same,Average Sleep Latency in MWT,"[1]; Cmpd A 44.8 mg, Mean",40.00 min
same,Average Sleep Latency in MWT,"[1]; Cmpd A 44.8 mg, Median",40.00 min
same,mean sleep latency in the lunch session (14:00),[1]; higher dose groups of Compound A,over 30 min
same,AEs observed in NT1 at the highest dose,[2]; 44.8 mg,"Blood pressure increase, heart rate increase, central nervous system (CNS) related symptoms (euphoric mood, hypnagogic hallucination and logorrhea) and salivary hypersecretion were observed"
same,dose dependent effect on BP and heart rate increase,"[2]; NT1 subjects, doses up to 44.8 mg",not notable
same,tolerability,"[2]; single dose, slow infusion over 9 hours, up to 44.8 mg, narcolepsy type 1 patients",well-tolerated with no major safety concerns
